Results on 17 compounds are retold here after ChEMBL document CHEMBL1131370, “Identification of potent inhibitors of Plasmodium falciparum plasmepsin II from an encoded statine combinatorial library” (Bioorg Med Chem Lett, 1998).

For experiment [1], the target named is T1, Plasmepsin II (Plasmodium falciparum, UniProt P46925). Briefly: In vitro inhibition of plasmepsin-2 from Plasmodium falciparum.
Experiment [2] deals with Plasmodium falciparum. The experiment is described as follows: Inhibitory activity against Plasmodium falciparum. It is filed as functional, organism-based.
The target in experiment [3] is Cathepsin D (Homo sapiens, UniProt P07339). Briefly: Inhibitory activity against cathepsin D.
Sequence of Cathepsin D (P07339 65-162 limits assumed): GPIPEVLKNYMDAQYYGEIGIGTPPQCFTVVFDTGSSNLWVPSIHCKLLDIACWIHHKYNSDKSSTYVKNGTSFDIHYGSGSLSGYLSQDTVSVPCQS
Sequence of Cathepsin D (P07339 169-412 limits assumed): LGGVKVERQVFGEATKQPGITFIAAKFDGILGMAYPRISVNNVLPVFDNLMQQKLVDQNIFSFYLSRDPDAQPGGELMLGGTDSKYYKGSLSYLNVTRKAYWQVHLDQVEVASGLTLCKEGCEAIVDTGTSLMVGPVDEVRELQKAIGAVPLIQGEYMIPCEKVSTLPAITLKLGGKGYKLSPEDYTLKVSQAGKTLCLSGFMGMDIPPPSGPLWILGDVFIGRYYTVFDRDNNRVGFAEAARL
Experiment [4] addresses T1, Plasmepsin II. Briefly: Inhibitory activity against plasmepsin-2 from Plasmodium falciparum.

The structures appear in SMILES notation. Where only a bound is given, the exact number is not on record here.

By Ki is commonly meant a measure of affinity in units of concentration, obtained from inhibition or displacement. A low value points to a stronger hold on the target. A word on the IC50: it is the point on the concentration scale where inhibition reaches its midpoint. High values mean a need for much substance, low ones inhibition by little substance.

T1 sequence (P46925 whole entry): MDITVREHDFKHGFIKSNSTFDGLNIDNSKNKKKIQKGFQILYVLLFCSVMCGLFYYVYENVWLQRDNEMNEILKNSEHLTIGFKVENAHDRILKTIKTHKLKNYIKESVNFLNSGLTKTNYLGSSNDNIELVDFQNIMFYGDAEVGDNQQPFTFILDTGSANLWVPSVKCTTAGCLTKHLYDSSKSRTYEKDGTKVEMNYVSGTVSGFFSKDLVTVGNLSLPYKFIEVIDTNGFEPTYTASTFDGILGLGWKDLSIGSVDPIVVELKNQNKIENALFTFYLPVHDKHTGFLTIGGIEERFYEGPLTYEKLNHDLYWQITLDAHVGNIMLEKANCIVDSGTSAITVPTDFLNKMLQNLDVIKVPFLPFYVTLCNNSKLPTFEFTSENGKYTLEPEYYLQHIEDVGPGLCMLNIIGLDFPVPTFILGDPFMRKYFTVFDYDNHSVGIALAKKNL

Compound `CCCCNC(=O)CC(O)C(Cc1ccccc1)NC(=O)[C@@H](NC(=O)CN1CCC(C(N)=O)(c2ccccc2)CC1)[C@@H](C)CC` (some centres not stated) displayed a Ki in experiment [1] of 410 nM. Further, the IC50 in experiment [2] is roughly 20000 nM; in experiment [3] it was 5500 nM.
Consider `CCCCNC(=O)CC(O)C(CC(C)C)NC(=O)[C@@H](NC(=O)Cc1ccc2ccccc2c1)[C@@H](C)CC` (some centres not stated), for which the Ki stood at 50 nM in experiment [4] and 320 nM in experiment [3].
For the compound `CCCCNC(=O)CC(O)C(Cc1ccccc1)NC(=O)[C@@H](NC(=O)COc1ccc2ccccc2c1)c1ccccc1` (some centres not stated), the Ki in experiment [1] is 560 nM; in experiment [3] it was 200 nM.
On to `CCCCNC(=O)CC(O)C(Cc1ccccc1)NC(=O)[C@@H](NC(=O)Cc1ccc2ccccc2c1)[C@@H](C)CC` (some centres not stated), for which the Ki is 90 nM in experiment [1] and 50 nM in experiment [3].
The like results for `CCCCNC(=O)CC(O)C(Cc1ccccc1)NC(=O)[C@@H](NC(=O)c1ccc(OC)cc1OC)C(C)C` (some centres not stated) were, in that order, 500 nM and 1600 nM.
As to `CCCCNC(=O)CC(O)C(Cc1ccccc1)NC(=O)[C@H](CCC(N)=O)NC(=O)COc1ccc2ccccc2c1` (some centres not stated), the Ki was greater than 30000 nM in experiment [1] and 200 nM in experiment [3].
The matching figures for `CCCCNC(=O)CC(O)C(Cc1ccccc1)NC(=O)[C@@H](NC(=O)c1ccc(OC)cc1OC)[C@@H](C)CC` (some centres not stated): 220 nM and 2400 nM.
Compound `CCCCNC(=O)CC(O)C(Cc1ccccc1)NC(=O)[C@@H](NC(=O)c1ccc(CN2CCCC2)cc1)[C@@H](C)CC` (some centres not stated) gave a Ki in experiment [1] of 220 nM. Also, the IC50 was roughly 10000 nM in experiment [2] and 1200 nM in experiment [3].
`CCCCNC(=O)CC(O)C(Cc1ccccc1)NC(=O)[C@@H](NC(=O)COc1ccc2ccccc2c1)[C@@H](C)CC` (some centres not stated) came in with a Ki in experiment [1] of 110 nM. For the same compound, the results for the concentration for half-maximal inhibition (IC50) in experiment [2] and in experiment [3] were roughly 10000 nM and 500 nM, respectively.
In the case of `CCCCNC(=O)CC(O)C(CC(C)C)NC(=O)[C@H](Cc1ccccc1)NC(=O)COc1ccc2ccccc2c1` (some centres not stated), the Ki is 12000 nM in experiment [1] and 1300 nM in experiment [3].
The matching figures for `CCCCNC(=O)CC(O)C(Cc1ccccc1)NC(=O)[C@H](NC(=O)COc1ccc2ccccc2c1)c1ccccc1` (some centres not stated): 15000 nM and 700 nM.
The like results for `CC[C@H](C)[C@H](NC(=O)CN1CCC(C(N)=O)(c2ccccc2)CC1)C(=O)NC(Cc1ccccc1)C(O)CC(=O)NCCCc1ccccc1` (some centres not stated) were, in that order, 600 nM and 3900 nM.
The matching figures for `CCCCNC(=O)CC(O)C(CC(C)C)NC(=O)[C@H](CC(C)C)NC(=O)COc1ccc2ccccc2c1` (some centres not stated): 5600 nM and 920 nM.
As to `CCCCNC(=O)CC(O)C(CC(C)C)NC(=O)[C@@H](NC(=O)COc1ccc2ccccc2c1)c1ccccc1` (some centres not stated), the Ki was determined as 5800 nM in experiment [1] and 110 nM in experiment [3].
For the compound `CCC(C)C(NC(=O)c1ccc(CNC)cc1)C(=O)NC(CC(C)C)C(O)CC(=O)NCCCc1ccccc1` (configuration not stated), the Ki in experiment [1] was 440 nM; in experiment [3], 1300 nM.
For the compound `CCCCNC(=O)CC(O)C(Cc1ccccc1)NC(=O)[C@@H](NC(=O)c1ccc(OC)cc1OC)c1ccccc1` (stereo in doubt; form 1), the Ki in experiment [1] was 590 nM; in experiment [3], 2100 nM.
As for `CCCCNC(=O)CC(O)C(Cc1ccccc1)NC(=O)[C@@H](NC(=O)c1ccc(OC)cc1OC)c1ccccc1` (stereo in doubt; form 2), the values for the inhibitory constant (Ki) in experiment [1] and in experiment [3] were greater than 30000 nM and 6200 nM, respectively.
